Results taken from ChEMBL document CHEMBL4190219, “Detection of a Toxic Methylated Derivative of Phomopsin A Produced by the Legume-Infesting Fungus Diaporthe toxica” (J Nat Prod, 2017).

Columns and labels:
[1] = Cytotoxicity against human HepG2 cells assessed as cell viability at 5.1 uM after 72 hrs by WST1 assay (reference value: 100%); format: cell-based; conditions: read-out: Activity
HepG2 [2] = experiment: Cytotoxicity against human HepG2 cells assessed as cell vitality at 0.4 uM after 72 hrs by trypan blue staining based assay (reference value: 1.1 +/- 0.5%); conditions: hepg2, 72 h
[3] = Cytotoxicity against human HepG2 cells assessed as cell vitality at 10.1 uM after 72 hrs by trypan blue staining based assay (reference value: 1.1 +/- 0.5%); conditions: read-out: Activity
[4] = Cytotoxicity against human HepG2 cells assessed as cell vitality at 5.1 uM after 72 hrs by trypan blue staining based assay (reference value: 1.1 +/- 0.5%); conditions: read-out: Activity
[5] = Cytotoxicity against human HepG2 cells assessed as cell viability at 1.3 uM after 72 hrs by WST1 assay (reference value: 100%); format: cell-based; conditions: read-out: Activity
HepG2 [6] = experiment: Cytotoxicity against human HepG2 cells assessed as cell vitality at 0.1 uM after 72 hrs by trypan blue staining based assay (reference value: 1.1 +/- 0.5%); conditions: hepg2, 72 h
HepG2 [7] = experiment: Cytotoxicity against human HepG2 cells assessed as cell vitality at 1.3 uM after 72 hrs by trypan blue staining based assay (reference value: 1.1 +/- 0.5%); conditions: hepg2, 72 h
[8] = Cytotoxicity against human HepG2 cells assessed as cell viability at 10.1 uM after 72 hrs by WST1 assay (reference value: 100%); format: cell-based; conditions: read-out: Activity
HepG2 [9] = experiment: Cytotoxicity against human HepG2 cells assessed as cell vitality at 2.5 uM after 72 hrs by trypan blue staining based assay (reference value: 1.1 +/- 0.5%); conditions: hepg2, 72 h
HepG2 [10] = experiment: Cytotoxicity against human HepG2 cells assessed as cell viability after 72 hrs by WST1 assay; format: cell-based; conditions: for IC50: Homo sapiens, HepG2, 72 h; for Activity: human, hepg2, 72 h
HepG2 [11] = experiment: Cytotoxicity against human HepG2 cells assessed as cell vitality after 72 hrs by trypan blue staining based assay; conditions: hepg2, 72 h
[12] = Cytotoxicity against human HepG2 cells assessed as cell viability at 0.1 uM after 72 hrs by WST1 assay (reference value: 100%); format: cell-based; conditions: read-out: Activity
[13] = Cytotoxicity against human HepG2 cells assessed as cell viability at 2.5 uM after 72 hrs by WST1 assay (reference value: 100%); format: cell-based; conditions: read-out: Activity
[14] = Cytotoxicity against human HepG2 cells assessed as cell viability at 0.4 uM after 72 hrs by WST1 assay (reference value: 100%); format: cell-based; conditions: read-out: Activity

SMILES | viability at 72 h, 5.1 µM [1] [%] | Activity (HepG2 [2]) [%] | viability at 72 h, 10.1 µM [3] [%] | viability at 72 h, 5.1 µM [4] [%] | viability at 72 h, 1.3 µM [5] [%] | Activity (HepG2 [6]) [%] | Activity (HepG2 [7]) [%] | viability at 72 h, 10.1 µM [8] [%] | Activity (HepG2 [9]) [%] | IC50 (HepG2 [10]) [µM] | Activity (HepG2 [10]) | Activity (HepG2 [11]) | viability at 72 h, 0.1 µM [12] [%] | viability at 72 h, 2.5 µM [13] [%] | viability at 72 h, 0.4 µM [14] [%]
C=C(C)[C@@H]1NC(=O)[C@H](N(C)C)[C@H](O)c2cc(Cl)c(O)c(c2)O[C@](C)(CC)[C@@H](C(=O)N2CC=C[C@H]2C(=O)N/C(C(=O)N/C(=C/C(=O)O)C(=O)O)=C(\C)CC)NC1=O | 46 | 0.9 | 29.8 | 18.4 | 85 | 0.9 | 4.7 | 37 | 7.7 | 6.1 | Dose-dependent effect | Dose-dependent effect | 105 | 61 | 101
C=C(C)[C@@H]1NC(=O)[C@H](NC)[C@H](O)c2cc(Cl)c(O)c(c2)O[C@](C)(CC)[C@@H](C(=O)N2CC=C[C@H]2C(=O)N/C(C(=O)N/C(=C/C(=O)O)C(=O)O)=C(\C)CC)NC1=O | 57 | 1.1 | 17 | 9 | 99 | 0.5 | 1.6 | 48 | 4.3 | 8.1 | Dose-dependent effect | Dose-dependent effect | 106 | 83 | 105
